Converted amounts (≈) assume the structure as drawn. The source made the active and inactive calls. The rule behind the calls is not given here.
Legend:
[1] = system: Escherichia coli; assay: Antibacterial activity against Escherichia coli AB1157 at 50 ug/ml after 18 hrs by two-fold serial dilution method; type: functional, organism-based
[2] = system: Staphylococcus aureus; assay: Antistaphylococcal activity against Staphylococcus aureus Newman after 18 hrs by two-fold serial dilution method; type: functional
[3] = system: Staphylococcus aureus; assay: Antistaphylococcal activity against aminoglycosides/tetracycline-resistant Staphylococcus aureus NRS-1 after 18 hrs by two-fold serial dilution method; type: functional; conditions: NRS-1, 18 h
[4] = system: Staphylococcus aureus; assay: Antistaphylococcal activity against erythromycin-resistant Staphylococcus aureus NRS-70 after 18 hrs by two-fold serial dilution method; type: functional; conditions: NRS-70, 18 h
[5] = system: Staphylococcus aureus; assay: Antistaphylococcal activity against oxacillin/tetracycline-resistant Staphylococcus aureus NRS-100 after 18 hrs by two-fold serial dilution method; type: functional; conditions: NRS-100, 18 h
[6] = system: Staphylococcus aureus; assay: Antistaphylococcal activity against gentamicin-resistant Staphylococcus aureus NRS-108 after 18 hrs by two-fold serial dilution method; type: functional; conditions: NRS-108, 18 h
[7] = system: Staphylococcus aureus; assay: Antistaphylococcal activity against linezolid-resistant Staphylococcus aureus NRS-271 containing phage type E-MRSA 15 after 18 hrs by two-fold serial dilution method; type: functional; conditions: NRS-271, 18 h
[8] = Metabolic stability in Sprague-Dawley rat plasma after 0.5 to 24 hrs by LC-MS analysis; type: ADME, cell-free
[9] = system: Staphylococcus aureus; assay: Metabolic stability in Staphylococcus aureus Newman at MIC after 12 hrs by LC-MS analysis; type: ADME, organism-based; conditions: in vivo
[10] = system: WiDr; assay: Cytotoxicity against human WiDr cells assessed as decrease in cell survival at 20 times MIC after 24 hrs by MTT assay; type: cell-based
[11] = system: SCLC-21H; assay: Cytotoxicity against human SCLC-21H cells assessed as decrease in cell survival at 20 times MIC after 24 hrs by MTT assay; type: cell-based
[12] = system: J82; assay: Cytotoxicity against human J82 cells assessed as decrease in cell survival at 20 times MIC after 24 hrs by MTT assay; type: cell-based; conditions: j82, 24 h
[13] = system: HGC-27; assay: Cytotoxicity against human HGC27 cells assessed as decrease in cell survival at 20 times MIC after 24 hrs by MTT assay; type: cell-based; conditions: hgc-27, 24 h
[14] = system: NCI-H23; assay: Cytotoxicity against human H23 cells assessed as decrease in cell survival at 20 times MIC after 24 hrs by MTT assay; type: cell-based; conditions: nci-h23, 24 h
[15] = system: HEK-293T; assay: Cytotoxicity against HEK293T cells assessed as decrease in cell survival at 20 times MIC after 24 hrs by MTT assay; type: cell-based; conditions: human
[16] = system: Staphylococcus aureus; assay: Antistaphylococcal activity against Staphylococcus aureus Newman treated with increasing concentration of test compound everyday for 12 hrs measured after 20 days by two-fold serial dilution method; type: functional
[17] = system: Staphylococcus aureus; assay: Antistaphylococcal activity against erythromycin-resistant Staphylococcus aureus NRS-70 treated with increasing concentration of test compound everyday for 12 hrs measured after 20 days by two-fold serial dilution method; type: functional

CC(C)c1cc2c(cc1Br)[C@@]1(C)CCC[C@@](C)(C(=O)O)[C@@H]1C/C2=N\OCCNS(=O)(=O)c1ccc(C(F)(F)F)cc1
Activity [1]: inactive | MIC [2]: 1.56 to 3.13 µg/mL (≈ 2.37 to 4.75 µM) | MIC [3]: 0.78 to 1.56 µg/mL (≈ 1.18 to 2.37 µM) | MIC [4]: 0.78 to 1.56 µg/mL (≈ 1.18 to 2.37 µM) | MIC [5]: 0.78 to 1.56 µg/mL (≈ 1.18 to 2.37 µM) | MIC [6]: 0.78 to 1.56 µg/mL (≈ 1.18 to 2.37 µM) | MIC [7]: 0.78 to 1.56 µg/mL (≈ 1.18 to 2.37 µM) | Stability [8]: Stable | Stability [9]: Stable | Activity [10]: Non-Toxic | Activity [11]: Non-Toxic | Activity [12]: Non-Toxic | Activity [13]: Non-Toxic | Activity [14]: Non-Toxic | Activity [15]: Non-Toxic

Cc1noc(C)c1S(=O)(=O)NCCO/N=C1\C[C@H]2[C@](C)(C(=O)O)CCC[C@]2(C)c2cc(Br)c(C(C)C)cc21
Activity [1]: inactive | MIC [2]: 1.56 to 3.13 µg/mL (≈ 2.55 to 5.13 µM) | MIC [3]: 1.56 to 3.13 µg/mL (≈ 2.55 to 5.13 µM) | MIC [4]: 1.56 to 3.13 µg/mL (≈ 2.55 to 5.13 µM) | MIC [5]: 3.13 to 6.25 µg/mL (≈ 5.13 to 10.2 µM) | MIC [6]: 1.56 to 3.13 µg/mL (≈ 2.55 to 5.13 µM) | MIC [7]: 1.56 to 3.13 µg/mL (≈ 2.55 to 5.13 µM) | Stability [8]: Stable | Stability [9]: Stable | Activity [10]: Non-Toxic | Activity [11]: Non-Toxic | Activity [12]: Non-Toxic | Activity [13]: Non-Toxic | Activity [14]: Non-Toxic | Activity [15]: Non-Toxic | MIC [16]: 6.25 to 12.5 µg/mL (≈ 10.2 to 20.5 µM) | MIC [17]: 6.25 to 12.5 µg/mL (≈ 10.2 to 20.5 µM)

CC(C)c1cc2c(cc1Br)[C@@]1(C)CCC[C@@](C)(C(=O)O)[C@@H]1C/C2=N\OCCNS(=O)(=O)c1ccc(Cl)cc1Cl
Activity [1]: inactive | MIC [2]: 0.78 to 1.56 µg/mL (≈ 1.18 to 2.36 µM) | MIC [3]: 0.78 to 1.56 µg/mL (≈ 1.18 to 2.36 µM) | MIC [4]: 0.39 to 0.78 µg/mL (≈ 0.59 to 1.18 µM) | MIC [5]: 0.78 to 1.56 µg/mL (≈ 1.18 to 2.36 µM) | MIC [6]: 0.78 to 1.56 µg/mL (≈ 1.18 to 2.36 µM) | MIC [7]: 0.78 to 1.56 µg/mL (≈ 1.18 to 2.36 µM)

CC(C)c1cc2c(cc1Br)[C@@]1(C)CCC[C@@](C)(C(=O)O)[C@@H]1C/C2=N\OCCNS(=O)(=O)c1ccc(Cl)cc1
Activity [1]: inactive | MIC [2]: 0.78 to 1.56 µg/mL (≈ 1.25 to 2.49 µM) | MIC [3]: 1.56 to 3.13 µg/mL (≈ 2.49 to 5 µM) | MIC [4]: 0.78 to 1.56 µg/mL (≈ 1.25 to 2.49 µM) | MIC [5]: 1.56 to 3.13 µg/mL (≈ 2.49 to 5 µM) | MIC [6]: 1.56 to 3.13 µg/mL (≈ 2.49 to 5 µM) | MIC [7]: 1.56 to 3.13 µg/mL (≈ 2.49 to 5 µM)

From ChEMBL document CHEMBL4219219, “The synthesis and antistaphylococcal activity of N-sulfonaminoethyloxime derivatives of dehydroabietic acid” (Bioorg Med Chem Lett, 2018)
